Target: T1, human FSH receptor (Homo sapiens, UniProt P23945)
T1 construct: expressed in transfected cells; host or cells: Chinese Hamster Ovary (CHO) cells, stably transfected, cotransfected with a CRE/promoter-firefly luciferase reporter
T1 sequence (P23945 18-695): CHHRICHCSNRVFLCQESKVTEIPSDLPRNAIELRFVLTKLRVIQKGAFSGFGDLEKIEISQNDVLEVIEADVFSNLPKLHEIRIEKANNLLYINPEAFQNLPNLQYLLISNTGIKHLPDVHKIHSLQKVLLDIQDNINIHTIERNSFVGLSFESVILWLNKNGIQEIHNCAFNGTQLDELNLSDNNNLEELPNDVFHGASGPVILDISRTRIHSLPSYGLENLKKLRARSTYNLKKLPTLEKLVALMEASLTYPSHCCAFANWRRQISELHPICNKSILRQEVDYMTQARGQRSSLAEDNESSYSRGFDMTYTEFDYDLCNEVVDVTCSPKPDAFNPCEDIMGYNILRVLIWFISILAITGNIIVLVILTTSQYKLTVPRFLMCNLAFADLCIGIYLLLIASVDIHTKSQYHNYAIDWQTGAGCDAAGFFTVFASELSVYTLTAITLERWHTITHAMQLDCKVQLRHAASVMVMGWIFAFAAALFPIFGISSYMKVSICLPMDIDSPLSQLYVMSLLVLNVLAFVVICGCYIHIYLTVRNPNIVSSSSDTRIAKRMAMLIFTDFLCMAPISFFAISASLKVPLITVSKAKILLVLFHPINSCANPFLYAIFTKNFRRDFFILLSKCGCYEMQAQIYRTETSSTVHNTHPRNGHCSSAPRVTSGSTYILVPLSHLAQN
Experiment: Agonistic activity at the human FSH receptor expressed in CHO cells, CRE-luciferase reporter (hFSHRago CHO luc)
Format: cell-based
Details: CHO cells stably transfected with human FSH receptor and CRE/luciferase reporter; 4 hours of incubation
Excerpt: The term EC50 means the concentration of the test compound that elicits half-maximal (50%) stimulation compared to the compound's maximally attainable effect. The values can be determined e.g. in a cell line transfected with a FSH receptor gene and cotransfected with a cAMP responsive element/promoter directing the expression of a reporter gene. Values can be determined using a software program such as MathIQ (version 2.0, ID Business Solutions Limited). Agonistic Activity of Compounds at the Human FSH Receptor Expressed in CHO Cells Agonistic activity of the compounds at the human FSH receptor was determined in Chinese Hamster Ovary (CHO) cells stably transfected with the human FSH receptor and cotransfected with a cAMP responsive element (CRE)/promotor directing the expression of a firefly luciferase reporter gene. Binding of the compounds to the Gs protein-coupled FSH receptor will result in an increase of cAMP, which in turn will induce an increased transactivation of the luciferase reporter. Cells (7,500 cells/well of a 384 well plate) were incubated in Dulbecco' minimal essential F12 modified medium (Invitrogen), supplemented with 1 μg/ml bovine insulin, 5 μg/ml human apo-transferrin, 80 U/ml penicillin G and 80 μg/ml streptomycin with the test compounds (concentration between 0.0316 nM and 10.0 μM) in duplicate in a humidified atmosphere (95%) at 5-7% CO2 and 37° C. The final concentration of DMSO was 1%. After 4 hours of incubation, plates were allowed to adjust to room temperature for 1 hour. Then, Luclite (PerkinElmer) solution was added to the wells and cells were allowed to lyse for at least 1 hour at room temperature. Subsequently, luciferase activity was measured in a luminescence counter. The signal is expressed as counts per second (cps). The EC50 (concentration of the test compound that elicits half-maximal (50%) luciferase stimulation compared to the compound's maximally attainable effect) and efficacy values (maximal effect of the test compound as percentage of the maximal effect of recombinant human FSH) of the compounds were determined using the software program MathIQ (version 2.0, ID Business Solutions Limited). EC50 data are indicated at the synthesis examples.

In order of falling EC50:
1. COc1cc2ccn3c(C(=O)N(C)C(C)(C)C)nc(-c4cccs4)c3c2cc1OC(C)C [Example 15j, 9-Isopropoxy-8-methoxy-1-thiophen-2-yl-imidazo[5,1-a]isoquinoline-3-carboxylic acid tert-butyl-methyl-amide]  6.5 nM
2. CCn1nnc(-c2cc3c(cc2OC)CCn2c(C(=O)N(C)C(C)(C)C)nc(-c4cccs4)c2-3)n1 [Example 51c, 9-(2-Ethyltetrazol-5-yl-)-8-methoxy-1-thiophen-2-yl-5,6-dihydro-imidazo[5,1-a]isoquinoline-3-carboxylic acid tert-butyl-methyl-amide]  5 nM
3. C=CCN1CCN(C(=O)c2nc(-c3cccs3)c3n2CCc2cc(OC)c(OC(C)C)cc2-3)CCC1=O [Example 28, 4-Allyl-1-(9-isopropoxy-8-methoxy-1-thiophen-2-yl-5,6-dihydro-imidazo[5,1-a]isoquinoline-3-carbonyl)-[1,4]diazepan-5-one]  3 nM
4. COC1=CC2CCn3c(C(=O)N(C)C(C)(C)C)nc(-c4cccs4)c3C2C=C1c1cccnc1 (stereo not shown) [Example 2a, 8-Methoxy-9-pyridin-3-yl-1-thiophen-2-yl-5,6,6a,10a-tetrahydro-imidazo[5,1-a]isoquinoline-3-carboxylic acid tert-butyl-methyl-amide]  1 nM
5. CCCCN1CCN(C(=O)c2nc(-c3cccs3)c3n2CCc2cc(OC)c(OC(C)C)cc2-3)CCC1=O [Example 27b, 4-Butyl-1-(9-isopropoxy-8-methoxy-1-thiophen-2-yl-5,6-dihydro-imidazo[5,1-a]isoquinoline-3-carbonyl)-[1,4]diazepan-5-one]  0.6 nM

Tested on: not given
Experiment: not given
Details: not given

First: COc1cc2ccn3c(C(=O)N(C)C(C)(C)C)nc(-c4cccs4)c3c2cc1OC(C)C [Example 15j, 9-Isopropoxy-8-methoxy-1-thiophen-2-yl-imidazo[5,1-a]isoquinoline-3-carboxylic acid tert-butyl-methyl-amide]
Second: COc1cc2c(cc1CC(C)C)-c1c(-c3cccs3)nc(C(=O)N(C)C(C)(C)C)n1CC2 [Example 18k, 9-Isobutyl-8-methoxy-1-thiophen-2-yl-5,6-dihydro-imidazo[5,1-a]isoquinoline-3-carboxylic acid tert-butyl-methyl-amide]
The melting point of the first is higher: 163 to 164 °C for the first, 124 °C for the second.

`COc1cc2c(cc1Oc1ccccc1)-c1c(-c3cccs3)nc(C(=O)N(C)C(C)(C)C)n1CC2` [Example 42b, 8-Methoxy-9-phenoxy-1-thiophen-2-yl-5,6-dihydro-imidazo[5,1-a]isoquinoline-3-carboxylic acid tert-butyl-methyl-amide] and `COc1cccc(Oc2cc3c(cc2OC)CCn2c(C(=O)N(C)C(C)(C)C)nc(-c4cccs4)c2-3)c1` [Example 43b, 8-Methoxy-9-(3-methoxy-phenoxy)-1-thiophen-2-yl-5,6-dihydro-imidazo[5,1-a]isoquinoline-3-carboxylic acid tert-butyl-methyl-amide] cannot be ordered by melting point: 122 to 126 °C for the first, 123 to 124 °C for the second.

First: COc1cc2c(cc1CC(C)C)-c1c(-c3ncco3)nc(C(=O)N(C)C(C)(C)C)n1CC2 [Example 37f, 9-Isobutyl-8-methoxy-1-oxazol-2-yl-5,6-dihydro-imidazo[5,1-a]isoquinoline-3-carboxylic acid tert-butyl-methyl-amide]
Second: COc1cc2c(cc1-c1cccc(F)n1)-c1c(-c3cccs3)nc(C(=O)N(C)C(C)(C)C)n1CC2 [Example 2c, 9-(6-Fluoro-pyridin-2-yl)-8-methoxy-1-thiophen-2-yl-5,6-dihydro-imidazo[5,1-a]isoquinoline-3-carboxylic acid tert-butyl-methyl-amide]
The melting point of the first is lower: 147 to 148 °C for the first, 161 to 162 °C for the second.

First: COc1cc2c(cc1-c1cccc(S(C)(=O)=O)c1)-c1c(-c3cccs3)nc(C(=O)N(C)C(C)(C)C)n1CC2 [Example 2p, 9-(3-Methanesulfonyl-phenyl)-8-methoxy-1-thiophen-2-yl-5,6-dihydro-imidazo[5,1-a]isoquinoline-3-carboxylic acid tert-butyl-methyl-amide]
Second: COc1cc2c(cc1-c1cccc(F)c1)-c1c(-c3cccs3)nc(C(=O)N(C)C(C)(C)C)n1CC2 [Example 2i, 9-(3-Fluoro-phenyl)-8-methoxy-1-thiophen-2-yl-5,6-dihydro-imidazo[5,1-a]isoquinoline-3-carboxylic acid tert-butyl-methyl-amide]
The melting point of the first is higher: 216 °C for the first, 165 °C for the second.

Source: patent US8071587B2, “(Dihydro)imidazoiso[5,1-A]quinolines” (N. V. Organon, priority 2009, dated 2011)
